Entries after “also recorded” stand apart in the source; their conditions may differ.
How the values were obtained:
[1] = test system: SH-SY5Y; experiment: Aβ1-42 poisoning experiment in SH-SY5Y cells (MTT); format: cell-based, human; settings: n-butylidenephthalide 100 μM, vitamin C 200 μM, alone or in combination, Aβ1-42 1 μM
Description: Then, the cell viability is detected by a cell survival test using (3-(4,5-dimethylthiazol-2-yl)-2,5-diphenyltetrazolium bromide (MTT) assay.

[2] = test system: PSEN-1, PSEN-2, Aβ1-42 and NICD in C6-C99 cells; experiment: Western blotting of amyloid-related proteins in C6-C99 cells; format: cell-based; settings: C6-C99 cells
Description: FIG. 3B to FIG. 3E are the quantitative results of the Western blotting analysis of PSEN-1, PSEN-2, β-amyloid 1-42 (Aβ1-42) and NICD in FIG. 3A, respectively (p*<0.05, p**<0.01). The C6-C99 cells used in FIGS. 3A to 3E are glioma cells having a fragment of human amyloid precursor protein (APP). This fragment is a peptide fragment with 99 amino acids (APP-C99), which can express large amounts of PSEN-1, PSEN-2, and Aβ 1-42 after activation by cumate.
Western blotting is used to detect the expression levels of amyloid-related proteins, including PSEN-1, PSEN-2, and β-amyloid 1-42 (Aβ1-42), while simultaneously detect the expression level of Notch protein (Notch intracellular domain, NICD), which is an indicator of drug safety. If the Notch protein is not affected, then drug safety is indicated.
APP-C99 was transfected into C6 cells with the C99 peptide through cumate-inducible system activation.

[3] = test system: 3xTg AD mice; experiment: Immunostaining with Aβ1-42 antibody of brain sections; format: in vivo
Description: FIGS. 8D and 8E show the result of immunostaining with Aβ1-42 antibody to detect amyloid deposition in the brain. Brain sections were selected at −2.2 mm posterior to bregma. Red dot indicated Aβ1-42 plaque accumulation. n=5 for B6 mice and 3xTg-60 mg/kg n-BP group. n=4 for 3xTg vehicle group. n=6 for […]. Scale bars represent 1 mm. *p-value<0.05, **p-value<0.01 (Student's t-test).
It was observed that AP accumulation was absent in the hippocampus of B6 mice but present in that of 3xTg AD mice. […] Specifically, immunostaining was used to detect Aβ1-42 accumulation in the hippocampus of 14-month-old 3xTg AD mice.

[4] = test system: miR-29b-2-5p expression in C6-C99 cells; experiment: RT-qPCR of miR-29b-2-5p/miR-9-5p in C6-C99 cells; format: cell-based; settings: 100 μM n-BP
Description: (§1) Then, C6-C99 cells were used to explore the effect of 100 μM n-butylidenephthalide (n-BP) on the expressions of miR-29b-2-5p, PSEN1, and Aβ1-42. […] Also shown in FIGS. 4G to 4I are the results of using miR-29b-2-5p inhibitor to evaluate whether n-BP inhibited PSEN1 and Aβ1-42 expression through miR-29b-2-5p. Specifically, miR-29b-2-5p inhibitor was transfected into C6-C99 cells and examined the inhibitory effect of n-BP treatment on PSEN1 and Aβ1-42 expression. It was observed that the addition of the miR-29b-2-5p inhibitor to C6-C99 cells abolished the 100 μM n-BP induced decrease in PSEN1 and Aβ1-42 expression.

[5] = test system: miR-29b-2-5p and PSEN1 in the hippocampus of 3xTg AD mice; experiment: RT-qPCR of miR-29b-2-5p and PSEN1 in the hippocampus of 3xTg AD mice; format: in vivo
Description: FIGS. 7E and 7F show the RT-qPCR analysis result of the expression levels of miR-29b-2-5p and PSEN1, respectively, in the hippocampus of 3xTg AD mice. n=—4.
AD-3xTg transgenic mice are an animal model used to study Alzheimer's disease. The transgenic mice are genetically engineered to carry point mutations of human amyloid precursor protein (APP), microtubule-associated protein tau (MAPT P301L) and type I presenilin protein (PSEN-1). The AD-3xTg transgenic mice carrying Alzheimer's mutation genes affect the brain and produce symptoms, mainly involving amyloid aggregation in the hippocampus and cerebral cortex. […] The 3xTg mice have β-amyloid accumulation in the brain and have problems related to cognition.

[6] = test system: C6-C99 cells; experiment: Flow cytometry of C6-C99 cells (cumate-induced fluorescence); format: cell-based; settings: 100 μM n-BP
Description: Red peak, fluorescence of C6-C99 cells without cumate activation (background). Green peak, with cumate. Blue peak, with n-BP.
as §1

[7] = test system: miR-29b-2-5p and PSEN1 expression in Ts-21 iPSCs; experiment: Real-time PCR of miR-29b-2-5p and PSEN1 in Ts-21 iPSCs; format: cell-based, human; settings: 100 μM n-BP
Description: FIGS. 6A and 6B show the RT-qPCR analysis result of expression levels of miR-29b-2-5p/miR-9-5p and PSEN1/β-actin with or without […] n-BP. n=3 for each group.

[8] = test system: 3xTg AD mice; experiment: Morris water maze test in AD-3xTg mice; format: in vivo
Description: Red dot, starting point of the swim; green dot, end point of the swim.
N=4 for wild-type and 10 mg/kg donepezil-treated 3xTg mice. N=6 for vehicle-treated 3xTg mice, 60 mg/kg n-BP-treated 3xTg mice, and 120 mg/kg n-BP-treated 3xTg mice. *p-value<0.05, **p-value<0.01 (Student's t-test). […] After 4-12 months, the B6 (C57/BL6) control mice have no AP accumulation (Green color).
The mice behavioral experiment using Morris water maze is a classical test to detect short-term memory and complex memory. Through its behavior, it can be determined whether there is a difference in memory after drug treatment. […] Two sessions were conducted on Day 1 as follows: (1) mice were placed in the swimming pool to adapt to the environment for a training duration of 120 seconds; (2) a hidden rest platform was added to the pool at a precise location in the northwest corner of the pool (blue diamond in the east; red circle in the west and yellow triangle in the south as shown in FIG. 7G) and the mice were allowed for to swim in the pool for a duration of another 120 seconds. If the rescue platform was not found by the mouse within the allocated time, the mouse was guided to the platform. The test for finding the rescue platform is carried out for the next four consecutive days, with each session lasting 90 seconds. The result is collected and analyzed.

[9] = hippocampal gyrus of AD-3xTg mice, 120 mg/kg orally, vs untreated
[10] = hippocampus of 3xTg AD mice, control 100%

Compound: CCCC=C1OC(=O)c2ccccc21 [n-BP, n-butylidenephthalide]
- Cell survival, protection against Aβ1-42 damage [1]: has an effect on increasing cell survival
- Aβ1-42 expression ([2]; 100 μM n-BP): 40.53%±28.46%
- PSEN1 expression ([2]; 100 μM n-BP): 37.33%±23.1%
- Aβ1-42 expression ([2]; 100 μM, FIG. 3): significantly reduced
- Notch protein (NICD) expression, indicator of drug safety ([2]; 100 μM, FIG. 3): not affected
- PSEN-1 expression ([2]; 100 μM, FIG. 3): significantly reduced
- PSEN-2 expression ([2]; 100 μM, FIG. 3): significantly reduced
- Aβ accumulation in the hippocampus (Aβ1-42 antibody) ([3]; 3xTg AD mice, either dose of n-BP (60 or 120 mg/kg)): significantly decreased
- Aβ1-42 accumulation in the brain (immunostaining) ([3]; 14-month-old 3xTg AD mice, 120 mg n-BP/kg, vs vehicle): significantly reduced
- miR-29b-2-5p expression [4]: 358.95%±24.74%
- Gene expression level of PSEN-1 [5, 9]: decreased expression levels
- Gene expression level of miRNA-29b-2-5p [5, 9]: higher expression levels
- PSEN1 expression [5, 10]: 26.26%±27.75%
- miR-29b-2-5p expression [5, 10]: 188.58%±55.09%
- Cumate expression / fluorescence of C6-C99 cells [6]: did not affect; also recorded: does not affect the fluorescence of C6-C99
- Expression levels of other AD-related genes BACE1, PSEN2, APOE3 and APOE4 [7]: without significant difference
- PSEN1 expression (real-time PCR) [7]: 58.10%±29.28%
- miR-29b-2-5p expression [7]: 12.38 fold
- Movement trajectory ([8]; 120 mg n-BP/kg vs 60 mg n-BP/kg): shorter movement trajectory
- Locating and arriving at the resting platform ([8]; 120 mg/kg n-BP, donepezil as positive control): able to quickly locate and arrive at the resting platform
- Finding the rest platform after training ([8]; 60 and 120 mg n-BP/kg): could find the rest platform after training
- Time required to find the platform ([8]; Day 5, 120 mg/kg n-BP, 10 mg donepezil/kg, vs untreated 3xTg mice): significantly lower

— patent US20220096431A1, “PHARMACEUTICAL COMPOSITION AND METHOD FOR PREVENTING, TREATING AND DIAGNOSING A NEURODEGENERATIVE DISEASE” (BUDDHIST TZU CHI MEDICAL FOUNDATION, priority 2020, published 2022)
